The text below walks through data of patent US10155727B2, “Pyrazoles” (Janssen Pharmaceuticals, Inc., priority 2014, dated 2018).

Assay [1] has as its target human NR1/NR2B ion channels (Homo sapiens (Human), UniProt Q05586+Q13224). Description: HNR2BC: calcium influx assay on cloned human NR1/NR2B ion channels expressed in HEK cells. The class given is cell-based. The settings on record: HEK cells with hNR1/NR2B, 100 μM glutamate + 100 μM glycine, 3 parameter plot. As to the method:
HNR2BC: Effects of Test Articles on Cloned Human NR1/NR2B Ion Channels Expressed in Mammalian Cells
The ability of test compounds to act as an antagonist of NR1/NR2B was evaluated with a calcium influx assay (Calcium 5 Assay Kit, Molecular Devices).
For the antagonist assessment, NR1/NR2B was activated with the positive control agonist (Mg^2+-free HBPS+100 μM glutamic acid+100 μM glycine).
A HEK cell line, stable transfected with hNR1/NR2B was used. This tetracycline inducible cell line is transfected with GRIN1 (GeneBank accession number NM_007327.2) and GRIN2B (GeneBank accession number NM_000834.3.). The cells were cultured in cell culture flasks with DMEM/F12 supplemented with 10% FCS, 1% PenStrep and a selection of additional antibiotics.
Forty-Eight (48) hours before the assay the cells were plated into 96-well black well, flat clear bottom microtiter plates at a density of 50000 cells/well. Twenty-Four (24) hours later the receptor expression was induced by the addition of 1 μg/ml tetracycline in the presence of 2 mM ketamine and 200 μM 7-CKA. After 24 h of receptor induction the plates were used for the assay.
The medium was removed and the cells were loaded with 200 μl loading buffer (Molecular Devices) in Mg2+-free HBPS containing 100 μM 7-CKA at 37° C. for one (1) hour.
The test compounds were then solubilized in 100% DMSO and diluted to yield eight (8) different concentrations in 100% DMSO. A 96 well drug plate was prepared by diluting with water and glycine/glutamate to a 5-fold of final test concentration. Fluorescence intensity of the cells in the plate was measured in a FlexStation using an excitation wavelength of 485 nm and an emission wavelength of 525 nm. Twenty (20) seconds after starting the recordings the compounds together with the agonists glycine (100 μM) and glutamate (100 μM) were added into the wells and the fluorescence measured for ninety (90) seconds in summary.
The IC50 values provided in the paragraph below were determined using a 3 parameter plot.

The test system of a further assay is mice. Description: Forced swim test in mice. The settings on record: p.o. 30 minutes before the test, male NMRI mice. It is filed as in vivo. As to the method:
The compounds of the invention show significant antidepressive effects in the forced swim test in mice, an animal model of depression at doses of 100 mg/kg or below.
The method, which detects antidepressant activity, follows that described by Porsolt et al (Arch. Int. Pharmacodyn., 229, 327-336, 1977), which is incorporated by reference herein in its entirety.
Mice forced to swim in a situation from which they cannot escape rapidly become immobile. Antidepressants decrease the duration of immobility.
Male NMRI mice (Janvier, France), weighing 20-30 g, were individually placed in a cylinder (height=24 cm; diameter=13 cm) containing 10 cm water (22° C.) from which they cannot escape.
The mice were placed in the water for 6 minutes and the duration of immobility during the last 4 minutes was measured. The latency to the first bout of immobility was also recorded starting from the beginning of the test. 10 mice were studied per group. The test substance was administered p.o. 30 minutes before the test and compared with vehicle control group. The test was performed blind.

Another assay deals with rat NR1/NR2B receptor (Rattus norvegicus (Rat), UniProt P35439+Q00960). Description: NR2B binding assay: inhibition of specific [3H]-Ifenprodil binding to the rat NR1/NR2B receptor. To be noted: [3H]-Ifenprodil binding, rat brain membranes.
rat NR1/NR2B receptor, sequence (Q00960 27-1482, other chains not shown): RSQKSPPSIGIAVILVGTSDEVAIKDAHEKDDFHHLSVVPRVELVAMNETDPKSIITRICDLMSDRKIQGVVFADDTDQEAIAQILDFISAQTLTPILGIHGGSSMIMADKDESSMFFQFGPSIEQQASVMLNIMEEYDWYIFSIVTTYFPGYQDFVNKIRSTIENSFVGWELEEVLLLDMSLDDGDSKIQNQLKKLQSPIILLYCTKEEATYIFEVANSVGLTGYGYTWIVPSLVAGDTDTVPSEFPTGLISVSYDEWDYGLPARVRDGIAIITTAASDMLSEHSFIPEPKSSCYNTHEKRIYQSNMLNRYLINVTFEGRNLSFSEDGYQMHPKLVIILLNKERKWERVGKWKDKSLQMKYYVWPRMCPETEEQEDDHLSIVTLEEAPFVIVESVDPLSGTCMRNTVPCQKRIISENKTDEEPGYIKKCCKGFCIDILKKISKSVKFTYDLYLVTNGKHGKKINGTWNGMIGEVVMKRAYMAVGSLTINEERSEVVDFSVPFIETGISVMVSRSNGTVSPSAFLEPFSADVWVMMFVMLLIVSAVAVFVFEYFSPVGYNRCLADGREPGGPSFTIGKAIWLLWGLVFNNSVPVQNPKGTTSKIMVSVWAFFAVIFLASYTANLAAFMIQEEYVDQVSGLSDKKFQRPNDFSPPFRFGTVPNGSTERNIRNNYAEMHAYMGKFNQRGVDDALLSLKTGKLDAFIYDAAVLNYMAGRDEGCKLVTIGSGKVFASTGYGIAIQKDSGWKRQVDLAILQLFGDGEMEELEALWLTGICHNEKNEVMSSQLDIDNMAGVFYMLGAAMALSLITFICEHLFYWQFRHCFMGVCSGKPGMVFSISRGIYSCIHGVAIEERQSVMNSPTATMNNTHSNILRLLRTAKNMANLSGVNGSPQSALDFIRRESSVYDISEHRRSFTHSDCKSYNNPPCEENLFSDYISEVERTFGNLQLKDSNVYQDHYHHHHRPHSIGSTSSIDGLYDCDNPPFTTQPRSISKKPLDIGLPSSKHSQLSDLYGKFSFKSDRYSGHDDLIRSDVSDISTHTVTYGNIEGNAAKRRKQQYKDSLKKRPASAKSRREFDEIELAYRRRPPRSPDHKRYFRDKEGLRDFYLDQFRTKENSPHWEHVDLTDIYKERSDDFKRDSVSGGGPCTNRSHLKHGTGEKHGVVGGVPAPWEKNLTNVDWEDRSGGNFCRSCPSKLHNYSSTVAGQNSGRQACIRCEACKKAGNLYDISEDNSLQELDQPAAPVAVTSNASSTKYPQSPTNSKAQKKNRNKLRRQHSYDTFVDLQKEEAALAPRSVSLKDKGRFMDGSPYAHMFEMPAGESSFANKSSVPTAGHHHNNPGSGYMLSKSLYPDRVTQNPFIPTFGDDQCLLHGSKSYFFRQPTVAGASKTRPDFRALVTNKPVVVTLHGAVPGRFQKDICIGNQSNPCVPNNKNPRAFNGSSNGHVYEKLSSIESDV
For another assay, the target named is hERG receptor (Homo sapiens (Human), UniProt Q12809). The assay can be described thus: HERGBD: inhibition of specific [3H]-Dofetilide binding to the hERG receptor. (In general: The hERG channel carries a current that helps repolarise heart muscle cells.)
hERG receptor, sequence (Q12809 whole entry): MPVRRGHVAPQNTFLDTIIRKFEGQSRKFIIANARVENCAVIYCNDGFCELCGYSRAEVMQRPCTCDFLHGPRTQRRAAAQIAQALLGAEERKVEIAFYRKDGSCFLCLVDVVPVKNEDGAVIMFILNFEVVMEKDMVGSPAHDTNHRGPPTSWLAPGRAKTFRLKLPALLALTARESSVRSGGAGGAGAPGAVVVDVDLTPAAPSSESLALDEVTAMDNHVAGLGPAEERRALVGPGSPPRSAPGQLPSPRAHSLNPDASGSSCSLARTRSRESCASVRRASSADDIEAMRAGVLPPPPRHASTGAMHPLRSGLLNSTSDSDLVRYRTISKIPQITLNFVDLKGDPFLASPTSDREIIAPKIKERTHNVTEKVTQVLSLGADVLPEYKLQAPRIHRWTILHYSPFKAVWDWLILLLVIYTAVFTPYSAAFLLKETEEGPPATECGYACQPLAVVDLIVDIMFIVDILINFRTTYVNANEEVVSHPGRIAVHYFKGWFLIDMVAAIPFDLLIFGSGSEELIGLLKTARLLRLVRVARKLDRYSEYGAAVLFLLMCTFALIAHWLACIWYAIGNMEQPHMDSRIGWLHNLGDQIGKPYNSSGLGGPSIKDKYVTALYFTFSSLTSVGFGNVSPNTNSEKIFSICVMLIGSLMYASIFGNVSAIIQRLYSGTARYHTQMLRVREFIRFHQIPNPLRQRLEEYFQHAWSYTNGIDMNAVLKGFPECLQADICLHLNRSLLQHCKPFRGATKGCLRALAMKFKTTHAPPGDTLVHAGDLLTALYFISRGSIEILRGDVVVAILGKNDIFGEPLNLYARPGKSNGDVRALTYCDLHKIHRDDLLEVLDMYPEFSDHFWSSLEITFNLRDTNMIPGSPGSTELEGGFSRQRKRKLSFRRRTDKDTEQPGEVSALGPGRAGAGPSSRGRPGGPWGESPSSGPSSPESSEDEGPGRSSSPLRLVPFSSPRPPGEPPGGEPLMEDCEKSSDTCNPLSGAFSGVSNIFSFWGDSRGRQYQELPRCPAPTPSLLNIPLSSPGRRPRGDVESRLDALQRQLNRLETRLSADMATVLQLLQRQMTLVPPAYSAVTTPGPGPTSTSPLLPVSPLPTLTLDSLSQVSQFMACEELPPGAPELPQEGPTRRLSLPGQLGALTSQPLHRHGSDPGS

One may read the IC50 as the concentration needed to halve the response being measured.

Bounds are passed on as bounds.

human NR1/NR2B ion channels, sequence (Q13224 27-1484, other chains not shown): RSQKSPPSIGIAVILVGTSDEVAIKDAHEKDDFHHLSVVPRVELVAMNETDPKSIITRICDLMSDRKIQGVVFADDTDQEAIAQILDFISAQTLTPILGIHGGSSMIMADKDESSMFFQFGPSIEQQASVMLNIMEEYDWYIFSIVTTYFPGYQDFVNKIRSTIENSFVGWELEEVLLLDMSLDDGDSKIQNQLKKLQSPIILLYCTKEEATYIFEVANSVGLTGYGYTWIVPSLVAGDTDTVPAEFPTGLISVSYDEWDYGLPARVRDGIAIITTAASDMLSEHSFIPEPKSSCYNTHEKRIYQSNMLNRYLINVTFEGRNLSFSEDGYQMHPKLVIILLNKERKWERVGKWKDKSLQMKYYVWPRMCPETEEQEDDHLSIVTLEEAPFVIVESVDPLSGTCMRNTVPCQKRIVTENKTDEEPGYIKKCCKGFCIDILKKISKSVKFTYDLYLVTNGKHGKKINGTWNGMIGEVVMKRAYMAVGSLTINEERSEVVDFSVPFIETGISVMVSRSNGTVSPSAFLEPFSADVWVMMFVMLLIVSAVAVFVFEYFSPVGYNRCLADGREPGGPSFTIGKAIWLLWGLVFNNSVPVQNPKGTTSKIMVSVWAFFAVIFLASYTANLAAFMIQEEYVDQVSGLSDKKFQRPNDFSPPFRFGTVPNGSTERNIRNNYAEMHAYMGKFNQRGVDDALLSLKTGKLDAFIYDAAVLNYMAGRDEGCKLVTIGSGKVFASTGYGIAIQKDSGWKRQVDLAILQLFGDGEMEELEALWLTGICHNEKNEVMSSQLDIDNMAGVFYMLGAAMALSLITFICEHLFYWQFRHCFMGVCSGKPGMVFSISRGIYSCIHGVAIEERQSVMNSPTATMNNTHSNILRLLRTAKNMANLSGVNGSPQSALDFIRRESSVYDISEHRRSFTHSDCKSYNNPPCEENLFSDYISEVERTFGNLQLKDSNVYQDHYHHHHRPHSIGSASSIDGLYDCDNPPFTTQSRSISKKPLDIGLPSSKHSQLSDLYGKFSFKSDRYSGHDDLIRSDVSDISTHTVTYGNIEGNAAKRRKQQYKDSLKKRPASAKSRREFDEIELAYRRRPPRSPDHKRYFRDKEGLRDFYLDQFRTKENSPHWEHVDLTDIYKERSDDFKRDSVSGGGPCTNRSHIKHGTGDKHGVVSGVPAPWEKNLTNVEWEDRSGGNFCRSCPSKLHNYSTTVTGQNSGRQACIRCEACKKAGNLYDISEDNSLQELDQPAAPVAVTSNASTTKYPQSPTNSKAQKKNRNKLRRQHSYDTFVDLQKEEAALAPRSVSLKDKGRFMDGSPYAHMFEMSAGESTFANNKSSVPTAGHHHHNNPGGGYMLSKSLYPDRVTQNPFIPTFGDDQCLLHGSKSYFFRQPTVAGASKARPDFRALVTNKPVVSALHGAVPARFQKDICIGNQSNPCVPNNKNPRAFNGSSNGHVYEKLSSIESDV

With `Cn1ccc(Cn2cc(-c3ccc(Cl)c(OC(F)F)c3)cn2)n1` [Example 2, 3-[[4-[4-Chloro-3-(difluoromethoxy)phenyl]pyrazol-1-yl]methyl]-1-methyl-pyrazole], the 50% inhibitory concentration (IC50) in assay [1] is 2460 nM. In addition, the Minimum effective dose in the assay with mice stood at 30 mg/kg.

Consider `Fc1ccc(-c2cnn(Cc3cc[nH]n3)c2)cc1OC(F)F` [Example 18, 4-[3-(difluoromethoxy)-4-fluoro-phenyl]-1-(1H-pyrazol-3-ylmethyl) pyrazole], for which, in assay [1], the IC50 stood at 370 nM. For the same compound, the Minimum effective dose in the assay on mice is 10 mg/kg.

For the compound `CCCc1cc(Cn2cc(-c3ccc(F)c(C(F)F)c3)cn2)n[nH]1` [Example 41, 3-[[4-[3-(Difluoromethyl)-4-fluoro-phenyl]pyrazol-1-yl]methyl]-5-propyl-1H-pyrazole], the IC50 is 114 nM at rat NR1/NR2B receptor, 59700 nM in assay [1] and 16000 nM at hERG receptor.

Consider `Cc1[nH]ncc1Cn1cc(-c2ccc(F)c(C(F)F)c2)cn1` [Example 42, 4-[3-(Difluoromethyl)-4-fluoro-phenyl]-1-[(5-methyl-1H-pyrazol-4-yl)methyl]pyrazole], for which the IC50 at rat NR1/NR2B receptor was 202 nM; in assay [1], 2300 nM; on hERG receptor it was 71600 nM.

In the case of `CCc1cc(Cn2cc(-c3ccc(F)c(C(F)F)c3)cn2)n[nH]1` [Example 40, 3-[[4-[3-(Difluoromethyl)-4-fluoro-phenyl]pyrazol-1-yl]methyl]-5-ethyl-1H-pyrazole], the IC50 came to 47 nM on rat NR1/NR2B receptor, 3300 nM in assay [1] and 23300 nM on hERG receptor.

For `FC(F)Oc1cc(-c2cnn(Cc3cn[nH]c3)c2)ccc1Cl` [Example 7, 4-[4-Chloro-3-(difluoromethoxy)phenyl]-1-(1H-pyrazol-4-ylmethyl)pyrazole], the IC50 on rat NR1/NR2B receptor is 8.23 nM; in assay [1] it was 350 nM; on hERG receptor it was 52600 nM.

In the case of `Fc1ccc(-c2cnn(Cc3cc[nH]n3)c2)cc1C(F)F` [Example 35, 4-[3-(Difluoromethyl)-4-fluoro-phenyl]-1-(1H-pyrazol-3-ylmethyl)pyrazole], the IC50 at rat NR1/NR2B receptor amounted to 17.6 nM; in assay [1], 690 nM; on hERG receptor, 22600 nM.

In the case of `Cc1n[nH]c(C)c1Cn1cc(-c2ccc(Cl)c(OC(F)F)c2)cn1` [Example 88, 4-[[4-(3-difluoromethoxy-4-chloro-phenyl)pyrazol-1-yl]methyl]-3,5-dimethyl-1H-pyrazole], the IC50 is 152 nM on rat NR1/NR2B receptor, greater than 10000 nM in assay [1] and 43200 nM at hERG receptor.

Turning to `Cc1[nH]ncc1Cn1cc(-c2ccc(Cl)c(OC(F)F)c2)cn1` [Example 16, 4-[4-Chloro-3-(difluoromethoxy)phenyl]-1-[(5-methyl-1H-pyrazol-4-yl)methyl]pyrazole], the IC50 is 41.1 nM at rat NR1/NR2B receptor, 2150 nM in assay [1] and 64700 nM on hERG receptor.

Turning to `Cn1ccc(Cn2cc(-c3ccc(Cl)cc3)cn2)n1` [Example 75, 3-[[4-(4-Chlorophenyl)pyrazol-1-yl]methyl]-1-methyl-pyrazole], the IC50 on rat NR1/NR2B receptor worked out at 3040 nM; in assay [1], 33800 nM; on hERG receptor it was 131000 nM.

In the case of `CC(F)(F)c1cc(-c2cnn(Cc3cc[nH]n3)c2)ccc1F` [Example 44, 4-[3-(1,1-difluoroethyl)-4-fluoro-phenyl]-1-(1H-pyrazol-3-ylmethyl)pyrazole Succinate], the IC50 is 17.1 nM on rat NR1/NR2B receptor, 530 nM in assay [1] and greater than 100000 nM at hERG receptor.

In the case of `Cc1cc(Cn2cc(-c3ccc(F)c(C(F)F)c3)cn2)[nH]n1` [Example 39, 4-[3-(Difluoromethyl)-4-fluoro-phenyl]-1-[(3-methyl-1H-pyrazol-5-yl)methyl]pyrazole], the figures for the IC50 (on rat NR1/NR2B receptor; in assay [1]; at hERG receptor) were 102 nM, 2400 nM and 90200 nM, respectively.

Regarding `Cc1cc(Cn2cc(-c3ccc(Cl)cc3)cn2)n(C)n1` [Example 74, 5-[[4-(4-Chlorophenyl)pyrazol-1-yl]methyl]-1,3-dimethyl-pyrazole], the IC50 at rat NR1/NR2B receptor is 6060 nM; in assay [1] it was 51000 nM; on hERG receptor it was greater than 100000 nM.

`CCc1[nH]ncc1Cn1cc(-c2ccc(F)c(C(F)F)c2)cn1` [Example 43, 4-[3-(Difluoromethyl)-4-fluoro-phenyl]-1-[(5-ethyl-1H-pyrazol-4-yl)methyl]pyrazole]: the results for the IC50 (on rat NR1/NR2B receptor; in assay [1]; on hERG receptor) were 134 nM, 2660 nM and 57400 nM, respectively.
